Results as given in ChEMBL document CHEMBL5096164, “In Vivo Profiling of a Natural Alkaloid, Anatabine, in Rodents: Pharmacokinetics and Anti-Inflammatory Efficacy” (J Nat Prod, 2021).
The source made the active and inactive calls. The rule behind the calls is not given here.

How the values were obtained:
[1] = Bioavailability in Wistar rat plasma at 5 mg/kg, ip administered as bolus dose measured after 5 to 360 mins by LC-MS/MS analysis; format: ADME, organism-based; settings: time 5-360 min
[2] = Cmax in rat at 0.06 mg/kg via inhalation; format: ADME, organism-based; set-up: dose 0.06 mg/kg, route inh; settings: in vivo, inhaled or intranasal
[3] = Antiinflammatory activity in MOG (35 to 55 residues)-induced experimental autoimmune encephalomyelitis mouse aerosol assessed as reduction in clinical score at 25 microg/L measured on 15 day (reference value: 1.9); format: ADME; settings: inhaled_or_intranasal, 360 h, dose 25 µg/L
[4] = AUC in C57BL/6 brain at 2 mg/kg, ip measured after 3 to 240 mins by LC-MS/MS analysis; format: ADME, organism-based; set-up: time 3-240 min, dose 2 mg/kg, route ip; settings: C57BL/6, mouse
[5] = test system: Mus musculus; assay: Antiinflammatory activity LPS induced mouse model assessed as reduction in IL-7 at 1 to 5 mg/kg, ip preincubated for 1 hr followed by LPS stimulation and measured after 2 hrs by luminex xMAP bead based assay; format: functional, organism-based; settings: dose 1-5 mg/kg, time 3.0 hrs
[6] = Half life in Wistar rat plasma at 5 mg/kg, ip administered as bolus dose measured after 5 to 360 mins by LC-MS/MS analysis; format: ADME, organism-based; settings: time 5-360 min
[7] = Ratio of Cmax in C57BL/6 mouse brain to plasma at 2 mg/kg, ip measured after 3 to 240 mins by LC-MS/MS analysis; format: ADME, organism-based; settings: brain and plasma, time 3-240 min, read-out: BPR
[8] = Half life in C57BL/6 mouse plasma at 2 mg/kg, ip measured after 3 to 240 mins by LC-MS/MS analysis; format: ADME, organism-based; settings: time 3-240 min
[9] = Cmax in rat at 2.73 mg/kg via inhalation; format: ADME, organism-based; set-up: dose 2.73 mg/kg, route inh; settings: in vivo, inhaled or intranasal
[10] = test system: Mus musculus; assay: Antiinflammatory activity ip/LPS induced mouse model assessed as reduction in IL-6 level in plasma preincubated for 1 hr followed by LPS stimulation and measured after 2 hrs by ELISA method; format: functional, organism-based; settings: dose 1-5 mg/kg, time 3.0 hrs, DDE = dose-dependent effect
[11] = Half life in rat at 0.40 mg/kg via inhalation; format: ADME, organism-based; settings: in vivo, inhaled or intranasal, route inh, dose 0.4 mg/kg
[12] = Cmax in C57BL/6 brain at 2 mg/kg, ip measured after 3 to 240 mins by LC-MS/MS analysis; format: ADME, organism-based; set-up: time upper 240 min, time lower 3 min, dose 2 mg/kg, route ip; settings: C57BL/6, mouse
[13] = test system: Mus musculus; assay: Antiinflammatory activity ip /LPS induced mouse model assessed as upregulation of IL-10 level preincubated for 1 hr followed by LPS stimulation and measured after 2 hrs by luminex xMAP bead based assay; format: functional, organism-based; settings: dose 1-5 mg/kg, time 3.0 hrs, DDE = dose-dependent effect
[14] = Bioavailability in Wistar rat plasma at 1 mg/kg, iv administered as bolus dose measured after 5 to 360 mins by LC-MS/MS analysis; format: ADME, organism-based; settings: in vivo, time 5-360 min
[15] = Drug uptake in rat aerosol at 2.5 microg/L via inhalation measured for 30 mins; format: ADME; settings: in vivo, inhaled_or_intranasal, 0.5 h, route inh, dose 2.5 µg/L
[16] = Drug uptake in MOG (35 to 55 residues)-induced experimental autoimmune encephalomyelitis unimmunized mouse in plasma at 50 microg/L by LC-MS/MS analysis; format: ADME; settings: dose 50 µg/L
[17] = AUC in rat at 0.06 mg/kg via inhalation; format: ADME, organism-based; set-up: dose 0.06 mg/kg, route inh; settings: in vivo, inhaled or intranasal
[18] = test system: Mus musculus; assay: Antiinflammatory activity LPS induced mouse model assessed as reduction in granulocyte-macrophage colony stimulating factor at 1 to 5 mg/kg, ip preincubated for 1 hr followed by LPS stimulation and measured after 2 hrs by luminex xMAP bead based assay; format: functional, organism-based; settings: dose 1-5 mg/kg, time 3.0 hrs
[19] = AUC in Wistar rat plasma at 1 mg/kg, iv administered as bolus dose measured after 5 to 360 mins by LC-MS/MS analysis; format: ADME, organism-based; set-up: time upper 360 min, time lower 5 min, dose 1 mg/kg, route iv
[20] = test system: Mus musculus; assay: Antiinflammatory activity in ip /LPS induced mouse model assessed as reduction in tumor necrosis factor alpha level in plasma preincubated for 1 hr followed by LPS stimulation and measured after 2 hrs by ELISA method; format: functional, organism-based; settings: dose 1-5 mg/kg, DDE = dose-dependent effect
[21] = Bioavailability in Wistar rat plasma at 2 mg/kg, iv administered as bolus dose measured after 5 to 360 mins by LC-MS/MS analysis; format: ADME, organism-based; settings: time 5-360 min
[22] = test system: Mus musculus; assay: Antiinflammatory activity LPS induced mouse model assessed as reduction in IL-9 at 1 to 5 mg/kg, ip preincubated for 1 hr followed by LPS stimulation and measured after 2 hrs by luminex xMAP bead based assay; format: functional, organism-based; settings: dose 1-5 mg/kg, time 3.0 hrs
[23] = Clearance in Wistar rat plasma at 2 mg/kg, iv administered as bolus dose measured after 5 to 360 mins by LC-MS/MS analysis; format: ADME, organism-based; settings: time 5-360 min
[24] = Clearance in Wistar rat plasma at 5 mg/kg, ip administered as bolus dose measured after 5 to 360 mins by LC-MS/MS analysis; format: ADME, organism-based; settings: time 5-360 min
[25] = Cmax in rat at 0.40 mg/kg via inhalation; format: ADME, organism-based; set-up: dose 0.4 mg/kg, route inh; settings: in vivo, inhaled or intranasal, 0.4 mg/kg
[26] = Drug concentration in carrageenan-induced paw edema in rat respiratory tract at 230.7 microg/L via inhalation measured for 30 mins; format: ADME; settings: inhaled or intranasal, route inh, dose 230.7 µg/L, read-out: Drug uptake
[27] = Tmax in Wistar rat plasma at 5 mg/kg, ip administered as bolus dose measured after 5 to 360 mins by LC-MS/MS analysis; format: ADME, organism-based; settings: time 5-360 min
[28] = Half life in Wistar rat plasma at 1 mg/kg, iv administered as bolus dose measured after 5 to 360 mins by LC-MS/MS analysis; format: ADME, organism-based; settings: time 5-360 min
[29] = Bioavailability in rat at 0.40 mg/kg via inhalation; format: ADME, organism-based; settings: in vivo, inhaled or intranasal, route inh, dose 0.4 mg/kg
[30] = Half life in rat at 0.06 mg/kg via inhalation; format: ADME, organism-based; settings: in vivo, inhaled or intranasal, route inh
[31] = Cmax in Wistar rat plasma at 2 mg/kg, iv administered as bolus dose measured after 5 to 360 mins by LC-MS/MS analysis; format: ADME, organism-based; set-up: dose 2 mg/kg, time upper 360 min, time lower 5 min, route iv
[32] = AUC in rat at 0.40 mg/kg via inhalation; format: ADME, organism-based; set-up: dose 0.4 mg/kg, route inh; settings: in vivo, inhaled or intranasal, 0.4 mg/kg
[33] = test system: Mus musculus; assay: Antiinflammatory activity in LPS induced mouse model assessed as reduction in tumor necrosis factor alpha level in plasma at 5 mg/kg, ip preincubated for 1 hr followed by LPS stimulation and measured after 2 hrs by ELISA method relative to control; format: functional; set-up: scale not given: the % may be the effect or the level left
[34] = Drug uptake in MOG (35 to 55 residues)-induced experimental autoimmune encephalomyelitis mouse aerosol at 25 microg/L by LC-MS/MS analysis; format: ADME; settings: in vivo, inhaled_or_intranasal, dose 25 µg/L

Structure (SMILES): C1=CCC(c2cccnc2)NC1 (centres undefined)
- bioavailability [1]: 68.6%
- Cmax [2]: 20 ng/mL
- Activity [3]: 0.6
- AUC [4]: 1490 ng·h/mL
- Activity [5]: Active
- half-life [6]: 1.39 h
- Kp [7]: 2.5
- half-life [8]: 0.21 h
- Cmax [9]: 780 ng/mL
- Activity [10]: Dde
- half-life [11]: 3.84 h
- Cmax [12]: 3380 ng/mL
- Activity [13]: Dde
- F [14]: 100%
- Drug uptake [15]: 2.5 µg/L
- Cp [16]: 1202.5 ng/mL
- AUC [17]: 91.2 ng·h/mL
- Activity [18]: Active
- AUC [19]: 1990 ng·h/mL
- Activity [20]: Dde
- bioavailability [21]: 68.6%
- Activity [22]: Active
- clearance [23]: 8.11 mL/min/kg
- CL/F [24]: 8.11 mL/min/kg
- Cmax [25]: 160 ng/mL
- concentration at 0.5 h [26]: 2.42 ng/mL
- Tmax [27]: 9.6 min
- half-life [28]: 1.14 h
- bioavailability [29]: 80.1%
- half-life [30]: 3.96 h
- Cmax [31]: 1180 ng/mL
- AUC [32]: 637 ng·h/mL
- Activity [33]: 34%
- Drug uptake [34]: 24.8 ng/mL
